Data as given in publication PMC10866925, “Catalyst-free late-stage functionalization to assemble α-acyloxyenamide electrophiles for selectively profiling conserved lysine residues” (Communications Chemistry, 2024).
Values belong to the compound of their own block, whether it stands above or below them.

Key:
[1] = target: T1, ATP-dependent 6-phosphofructokinase, platelet type (PFKAP) (Homo sapiens, UniProt Q01813); assay: pull-down/LC-MS and pull-down/WB in cells, K688R mutant and siRNA knockdown; format: cell-based
T1 construct: gene PFKP; full-length
T1 sequence (Q01813 1-784): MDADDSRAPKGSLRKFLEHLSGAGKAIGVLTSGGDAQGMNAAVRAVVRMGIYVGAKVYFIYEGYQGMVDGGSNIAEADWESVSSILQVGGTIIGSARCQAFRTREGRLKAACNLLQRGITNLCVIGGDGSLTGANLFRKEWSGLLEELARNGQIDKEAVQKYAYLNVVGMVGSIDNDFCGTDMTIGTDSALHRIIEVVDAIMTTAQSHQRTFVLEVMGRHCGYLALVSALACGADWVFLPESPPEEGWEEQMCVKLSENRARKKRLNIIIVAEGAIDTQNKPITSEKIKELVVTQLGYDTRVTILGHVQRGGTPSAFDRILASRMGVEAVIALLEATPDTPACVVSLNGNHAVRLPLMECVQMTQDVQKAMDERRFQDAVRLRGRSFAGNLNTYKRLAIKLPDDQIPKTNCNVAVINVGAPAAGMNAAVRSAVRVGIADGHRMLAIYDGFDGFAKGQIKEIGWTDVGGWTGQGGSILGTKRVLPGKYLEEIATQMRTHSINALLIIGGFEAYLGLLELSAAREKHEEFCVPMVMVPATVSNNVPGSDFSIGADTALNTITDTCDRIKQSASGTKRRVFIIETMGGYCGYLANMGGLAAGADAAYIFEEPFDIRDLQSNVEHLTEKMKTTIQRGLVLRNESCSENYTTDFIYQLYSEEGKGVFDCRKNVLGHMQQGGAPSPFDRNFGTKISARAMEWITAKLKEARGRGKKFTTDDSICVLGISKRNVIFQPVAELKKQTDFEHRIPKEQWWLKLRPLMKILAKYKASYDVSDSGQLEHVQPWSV

[2] = target: EGFR L858R mutant (Homo sapiens, UniProt P00533, L858R); assay: Z'-LYTE FRET kinase assay, time dependent ([…] at […] min, […] at […] h); also labelling of recombinant protein, LC-MS/MS site mapping, CETSA, competitive pull-down; format: biochemical
Sequence of EGFR L858R mutant (P00533 669-1210 L858R limits assumed): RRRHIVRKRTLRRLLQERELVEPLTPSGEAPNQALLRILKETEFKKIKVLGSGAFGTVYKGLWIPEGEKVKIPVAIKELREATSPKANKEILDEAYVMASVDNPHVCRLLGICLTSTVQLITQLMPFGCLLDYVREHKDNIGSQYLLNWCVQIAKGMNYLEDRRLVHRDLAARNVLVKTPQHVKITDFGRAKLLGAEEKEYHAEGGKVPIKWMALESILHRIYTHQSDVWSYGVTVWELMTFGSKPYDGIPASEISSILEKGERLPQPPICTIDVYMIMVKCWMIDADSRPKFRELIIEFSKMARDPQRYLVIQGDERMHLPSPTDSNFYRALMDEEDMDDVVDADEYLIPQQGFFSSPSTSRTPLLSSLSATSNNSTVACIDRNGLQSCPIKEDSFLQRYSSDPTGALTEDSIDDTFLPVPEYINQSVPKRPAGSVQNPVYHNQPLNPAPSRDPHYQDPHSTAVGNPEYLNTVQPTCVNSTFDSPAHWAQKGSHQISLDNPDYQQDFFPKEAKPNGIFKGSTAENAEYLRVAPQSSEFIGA

[3] = target: T2, CDK2 (Homo sapiens, UniProt P24941); assay: radiometric kinase assay ([…]-ATP, histone H1); also K33R pull-down/WB; format: biochemical
T2 construct: CDK2/cyclinA (h); with cyclin A

[4] = target: T3, CDK1 (Homo sapiens, UniProt P06493); assay: radiometric kinase assay ([…]-ATP, histone H1); also MS of K33 modification, K33R pull-down/WB, CETSA; format: biochemical
T3 construct: CDK1/cyclinB (h); with cyclin B
T3 sequence (P06493 whole entry): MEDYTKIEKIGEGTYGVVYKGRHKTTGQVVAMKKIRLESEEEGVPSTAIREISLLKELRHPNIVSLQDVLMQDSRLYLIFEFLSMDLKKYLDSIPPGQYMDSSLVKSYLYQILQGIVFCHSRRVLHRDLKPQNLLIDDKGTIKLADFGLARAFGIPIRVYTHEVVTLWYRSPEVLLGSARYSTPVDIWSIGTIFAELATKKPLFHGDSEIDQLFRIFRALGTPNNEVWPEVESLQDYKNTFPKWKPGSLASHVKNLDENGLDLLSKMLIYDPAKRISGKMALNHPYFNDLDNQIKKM
T3 sequence (P14635 whole entry partner): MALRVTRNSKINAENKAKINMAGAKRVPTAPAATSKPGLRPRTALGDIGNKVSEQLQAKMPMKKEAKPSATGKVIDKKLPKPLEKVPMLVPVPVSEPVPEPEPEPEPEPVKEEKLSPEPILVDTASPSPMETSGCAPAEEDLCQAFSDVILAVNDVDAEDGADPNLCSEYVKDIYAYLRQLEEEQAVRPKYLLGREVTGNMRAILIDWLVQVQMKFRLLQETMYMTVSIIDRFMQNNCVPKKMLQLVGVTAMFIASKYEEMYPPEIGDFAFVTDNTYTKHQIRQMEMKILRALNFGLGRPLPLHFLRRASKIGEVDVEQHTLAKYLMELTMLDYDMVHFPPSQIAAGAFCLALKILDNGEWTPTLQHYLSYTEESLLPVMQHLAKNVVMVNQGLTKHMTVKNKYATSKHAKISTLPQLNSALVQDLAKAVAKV

[5] = target: T4, CDK5 (Homo sapiens, UniProt Q00535); assay: radiometric kinase assay ([…]-ATP, histone H1); also K33R pull-down/WB; format: biochemical
T4 construct: CDK5/p25 (h); with p25
T4 sequence (Q00535 whole entry): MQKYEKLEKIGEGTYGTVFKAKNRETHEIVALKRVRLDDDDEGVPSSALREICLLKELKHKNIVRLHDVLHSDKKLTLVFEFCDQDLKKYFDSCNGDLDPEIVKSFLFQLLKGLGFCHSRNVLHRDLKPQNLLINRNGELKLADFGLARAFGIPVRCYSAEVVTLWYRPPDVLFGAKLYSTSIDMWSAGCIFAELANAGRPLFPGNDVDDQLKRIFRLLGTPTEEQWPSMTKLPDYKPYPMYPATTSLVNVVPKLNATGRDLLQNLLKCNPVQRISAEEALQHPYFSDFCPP
T4 sequence (Q15078 99-307 partner limits assumed): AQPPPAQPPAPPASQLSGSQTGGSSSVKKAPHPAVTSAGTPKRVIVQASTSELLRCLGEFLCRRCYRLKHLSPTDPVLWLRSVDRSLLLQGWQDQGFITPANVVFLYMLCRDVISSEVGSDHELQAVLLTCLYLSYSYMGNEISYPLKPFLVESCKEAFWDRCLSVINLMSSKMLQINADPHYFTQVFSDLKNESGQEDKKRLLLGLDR

SMILES: C#Cc1ccc(C(=O)OC(=C)N(C)S(=O)(=O)c2ccc(C)cc2)cc1 [A1]
pull-down/LC-MS and pull-down/WB in cells, K688R mutant and siRNA knockdown [1]: Mutation of PFKAP K688 in the protein binding pocket to K688R severely affects the probe labeling

IC50 [2]: 1.3 nM
SMILES: C#Cc1cccc(Nc2ncnc3cc(OC)c(OCCCCC(=O)OC(=C)N(C)S(=O)(=O)c4ccc(C)cc4)cc23)c1 [E3]

IC50 [3]: 2 to 6 µM | IC50 [4]: 2 to 6 µM | IC50 [5]: 2 to 6 µM
SMILES: C#CCNC(=O)c1cc(Nc2cc(C3CC3)[nH]n2)nc(N2CCN(C(=O)CCC(=O)OC(=C)N(C)S(=O)(=O)c3ccc(C)cc3)CC2)n1 [X1]
